# Laboratory results reported in PubChem BioAssay AID463136 (University of Pittsburgh Molecular Library Screening Center, 2010).
# Results filed as inconclusive are left out. Activity calls are given as the source filed them. The rule behind the calls is not given here.
# Assays:
# [1] = dynein cargo transport inhibitors, potency, dose response, imaging, high-content imaging (AID 463136); settings: HCS imaging, dynein-mediated cargo transport inhibition; inhibition at max concentration; at 50 µM; stronger effect = higher value;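 note: mouse mammary adenocarcinoma 3617.4 cells expressing GFP-tagged rat glucocorticoid receptor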; for inhibition: reference of the scale not given here
# [2] = tested on: HCS imaging, dynein-mediated cargo transport inhibition; experiment: as above
SMILES,inhibition [1] [%],IC50 [2]
CCOC(=O)C(=Cc1cc(=O)c(OC)co1)C(=O)OCC,87.9,6.45 µM
Cn1c(=O)c([N+](=O)[O-])c(Cl)c2ccccc21,84,39.4 µM
Cc1ccc(-n2ncc(Br)c(Br)c2=O)cc1,70.1,13.8 µM
COCCCn1c(O)c(/C=C2\N=C(C#N)C(=Nc3ccc(C)cc3)O2)sc1=S,11,> 50 µM (inactive)
CC(C)N1C/C(=C/c2cccnc2)C(=O)/C(=C/c2cccnc2)C1,83,8.41 µM
CCC(=O)Nc1ccc(C(=O)Cn2ncc(Cl)c(Cl)c2=O)cc1,72.4,15.7 µM
CCCCCCN(C(=O)CCl)c1ccccc1,80.3,17.2 µM
CCN(CC)c1ccc(/C=C2/SC(=O)N(C(C)C)C2=O)o1,39.9,> 50 µM (inactive)
O=C(Nc1ccc(Cl)cc1)/C(=C/c1cccc(O)c1)c1nc2ccccc2s1,40.7,> 50 µM (inactive)
CC(=O)/C=C/n1c(=S)oc2ccccc21,69.5,23.4 µM
CC1CCc2cc(F)ccc2N1C(=O)CCl (centres undefined),77.7,10.5 µM
COC(=O)c1ccc(-n2c(C)cc(C(=O)CCl)c2C)cc1,66.8,21.9 µM
Cc1nc([N+](=O)[O-])c(Br)n1CC(=O)c1ccc(Br)cc1,82,14.7 µM
COCc1cc(S(=O)c2ccc(Cl)cc2)nc(C)n1 (centres undefined),86.5,15.6 µM
Cc1cc(C)cc(N2C(=O)NC(=O)/C(=C\C=C\c3ccco3)C2=O)c1,88,32.3 µM
Cc1ccc(CN=Cc2[nH]c3ccc(Br)c(Cl)c3c2O)cc1,99.2,5.14 µM
CC(C)(C)C(=O)/C(=C/c1ccncc1)n1cncn1,82.3,8.77 µM
Cc1ccc(/C=C2\CCC3=C2OC(N)=C(C#N)C3c2ccc(C)cc2)cc1 (centres undefined),111,3.23 µM
CCN(CC)c1ccc(/C=C/[N+](=O)[O-])cc1,0.227,> 50 µM (inactive)
CCOC(=O)c1c(NC(=S)N2CCOCC2)sc2c1CCN(C(=O)OCC)C2,74,33.2 µM
CCOC(=O)c1c(NC(=S)N2CCCCC2)sc2c1CCN(C(=O)OCC)C2,30.3,> 50 µM (inactive)

SMILES,inhibition [1] [%],IC50 [2]
Cn1c(=O)c([N+](=O)[O-])c(Oc2ccccc2)c2ccccc21,15.3,> 50 µM (inactive)
COC(=O)c1cc(=O)n(Cc2cccs2)c(=Nc2ccccc2)s1,32.2,> 50 µM (inactive)
Cc1cc(-c2n[nH]c(=S)n2/N=C/C(Br)=C/c2ccccc2)n[nH]1,82.9,16.5 µM
CN1CCN(C2=C(Cl)C(=O)C(c3cnc(N4CCCCC4)s3)=C(Cl)C2=O)CC1,94.7,33.3 µM
Cc1ccc(SC(=O)c2c([N+](=O)[O-])c(C)nn2C)cc1,6.09,> 50 µM (inactive)
CCCSc1cc(NCCOC(=O)CCC)c([N+](=O)[O-])c2nonc12,59.1,28.4 µM
COC1=C(C)C(O)=C(C(=O)/C=C/c2ccccc2)C(=O)C1(C)C,88.2,12.2 µM
COc1ccccc1-[n+]1c(C)cc(/C=C2\Sc3ccccc3N2C)cc1C,92,9.31 µM
O=C(NC1CCCCC1)C(c1cccnc1)N(C(=O)CCl)c1ccc(F)cc1 (centres undefined),82.2,12.7 µM
C=C1C(=O)[C@@]23[C@H](O)C[C@@H]4C(C)(C)CC[C@H](O)[C@]4(C)[C@@H]2C[C@H](O)[C@@H]1[C@H]3O,54.9,9.84 µM
O=C(/C(=C/c1ccc(Cl)cc1)c1nc2ccccc2[nH]1)c1ccccc1,21.4,> 50 µM (inactive)
N#C/C(=C\c1cccc([N+](=O)[O-])c1)C(=O)NCc1ccc(Cl)cc1,13.8,> 50 µM (inactive)
CCOC(=O)/C(=C\c1cccnc1)C(=O)c1cc(C(C)=O)c(Nc2ccccc2)s1,80.4,9.84 µM
CCOC(=O)C1=C(SCC)c2cc3c(n2C1=O)CCCC3,37.7,> 50 µM (inactive)
COC(C/C=C/C(=O)COCc1ccccc1)OC,69.3,8.5 µM
CCOC(=O)C(=Cc1ccc(-n2cncn2)cc1)C(=O)OCC,89.8,33.7 µM
N#CC(C#N)=C1C=C2C=C(N3CCCCC3)CCC2CC1 (centres undefined),99.5,35.8 µM
CCOC(=O)COc1ccc(/C=C/[N+](=O)[O-])c(OCC(=O)OCC)c1,82.8,11.4 µM
O=C(Nc1ccccc1)c1nnsc1S(=O)c1ccc(Cl)cc1 (centres undefined),32.1,> 50 µM (inactive)
CC(C)n1c(O)c(C2c3cc(Cl)ccc3Oc3[nH]c(=O)n(C(C)C)c(=O)c32)c(=O)[nH]c1=O (centres undefined),64.2,13.6 µM
CCCNC(=O)Cn1c(=O)/c(=C\c2ccc(-c3ccc([N+](=O)[O-])cc3)o2)s/c1=C\C(=O)C(C)(C)C,95.2,32.2 µM

SMILES,inhibition [1] [%],IC50 [2]
N#CC(C#N)=C1C=C2C=C(N3CCCCCC3)CCC2CC1 (centres undefined),99.2,36.2 µM
O=c1c(Cl)c(Cl)cnn1Cc1ccccc1Cl,51.4,23.8 µM
CC(C)(C)C(=O)Cn1ncc(Cl)c(Cl)c1=O,90.6,7.93 µM
Cc1cc(N2CCCC2)c(F)cc1/C=C\[N+](=O)[O-],126,25.2 µM
Cc1cc(-n2c(C)cc(C(=O)CCl)c2C)no1,67.7,9.45 µM
O=C(NC1CCCC1)C(c1ccc(Cl)cc1)N(Cc1ccc(F)cc1)C(=O)CCl (centres undefined),75.1,34.8 µM
Cc1cc(C)c2c(=O)n(CC(=O)NCCCN3CCN(c4ccccc4F)CC3)sc2n1,96.3,14 µM
N#C/C(=C/c1ccc(N2CCCCC2)o1)C(=O)NCCc1c[nH]c2ccccc12,98.8,31.8 µM
O=[N+]([O-])c1c(NCCCO)cc(Sc2ccc(Cl)cc2)c2nonc12,30.9,> 50 µM (inactive)
CCn1c(SCC(=O)N2CCOCC2)nc2oc3c(Cl)cc(Cl)cc3c(=O)c2c1=O,78.9,33 µM
Cn1c(=O)c(Nc2ccc(Cl)cc2)c2c3c(cccc31)C(=O)c1ccccc1-2,97.8,31 µM
COc1ccccc1NS(=O)(=O)c1cc([N+](=O)[O-])ccc1N/N=C/c1c[nH]c2ccccc12,21.9,> 50 µM (inactive)
Cc1ccc(/C=C2/C(=O)ON=C2c2ccccc2)o1,15.6,> 50 µM (inactive)
COc1ccc(/C=C/C(=O)c2c(O)c(OC)c3occc3c2OC)cc1,30.2,> 50 µM (inactive)
CC1(C)COC(/C=C/c2cccc([N+](=O)[O-])c2)=N1,88.6,10 µM
O=C(/C=C/c1ccccc1)/C=C/c1ccccc1,45.9,> 50 µM (inactive)
CCOC(=O)c1c2ccc(OCC(=O)N/N=C/c3ccc(Cl)cc3)cc2n2ccccc12,27.4,> 50 µM (inactive)
COc1cc(/C=C(/C(=O)c2cccs2)c2nc3ccccc3[nH]2)cc(OC)c1O,61.2,13.8 µM
COc1cccc(/C(O)=C/c2nc3ccc(C(=O)NCCc4ccc(Cl)cc4)cc3[nH]c2=O)c1,32.4,> 50 µM (inactive)
CCOC(=O)CC1C(=O)NCCN1c1nc2ccc(C)cn2c(=O)c1/C=C1\SC(=S)N(CC(C)C)C1=O (centres undefined),71.8,44.9 µM
Cc1cc(C(=O)Cn2ncc(Cl)c(Cl)c2=O)c(C)n1CC(F)(F)F,78.6,7.79 µM

SMILES,inhibition [1] [%],IC50 [2]
COc1cc(N2C(=O)C=CC2=O)c(OC)cc1Cl,12.9,> 50 µM (inactive)
COc1ccc(N(C(=O)CCl)C(C(=O)NC2CCCCC2)c2cccnc2)cc1 (centres undefined),85.5,13.3 µM
O=[N+]([O-])c1ccc(/C=C/C2=NN(c3ccccc3)C(c3ccco3)C2)o1 (centres undefined),37.1,> 50 µM (inactive)
O=[N+]([O-])c1cc(S(=O)(=O)N2CCCCCC2)ccc1F,87.3,33.7 µM
COc1ccc(CCn2c(C)cc(C(=O)CCl)c2C)cc1OC,82.1,9.84 µM
CCN(CC)c1ccc2cc(-c3nc(-c4ccc(OC)cc4)cs3)c(=O)oc2c1,98.4,25.7 µM
C#CC(=O)N(c1ccc(OC)c(OC)c1)C(C(=O)NC1CCCC1)c1cccs1 (centres undefined),40.2,> 50 µM (inactive)
CC1(C)C[C@H]2C=C(C=O)[C@]3(C=O)C[C@]3(C)[C@H]2C1,78.6,12.9 µM
Cc1cc(C)c(S(=O)(=O)ON2C(=O)c3ccccc3C2=O)cc1C,10.5,> 50 µM (inactive)
O=c1[nH]sc2ccccc12,91,10.9 µM
Cc1ccccc1NC(=O)C(Cl)=C(Cl)Cl,77.1,13.4 µM
COc1ccc(-c2csc3nc(-c4cccnc4)nc(Cl)c23)cc1OC,84.4,27.5 µM
C=CS(=O)c1sc(Cl)c(N2CCOCC2)c1[N+](=O)[O-] (centres undefined),57.1,45.6 µM
COc1cccc(N2C(=O)NC(=O)/C(=C/c3ccc([N+](=O)[O-])s3)C2=O)c1,87.8,10.7 µM
Cc1c(N=C2C=CC(=O)c3ccccc32)c(=O)n(-c2ccccc2)n1C,76.4,39.6 µM
COc1ccc(N=C2S/C(=C\c3ccc(N4CCOCC4)o3)C(=O)N2CCc2c[nH]c3ccccc23)cc1,127,27.1 µM
CCN1/C(=C/C=C/c2oc3ccc4ccccc4c3[n+]2CC)Oc2ccc3ccccc3c21,96.7,2.51 µM
CCOc1cc(/C=C\[N+](=O)[O-])ccc1OCC(=O)N1CCOCC1,76.4,37.4 µM
N#Cc1c(Cl)c(Cl)c2nnc(-c3ccc(Br)cc3)n2c1Cl,40.1,> 50 µM (inactive)
